For 90 molecules, melting point results are on record in a melting point compilation (Tetko et al.; mined from patent text by program, amines drawn as free bases though some values may be those of a salt).

In the case of `N#Cc1c(C(F)(F)F)nn(-c2c(Cl)cc(C(F)(F)F)cc2Cl)c1N`, the melting point – broadly, the temperature of the solid-liquid transition – is 196 to 200 °C.
For the molecule `COc1cc(OC)nc(N2CCN(Cc3ccc(CNC(C)=O)cc3)CC2)n1`, the melting point fell in the range of 130 to 131 °C.
To `CS(=O)(=O)c1nccc(-n2nnc3ccccc32)n1` belongs 202 °C.
`CNC(=O)N(OC(=O)NC(C)(C)C)C(C)=O` yielded a melting point of 142 to 144 °C.
To `CS(=O)(=O)NC(=O)c1cc(Oc2c(Cl)cc(Cl)cc2Cl)ccc1[N+](=O)[O-]` belongs 228 °C; to `C#CCN1C(=O)COc2cc(F)c(-c3ncnc(C(F)(F)F)c3Cl)cc21`, 158 to 159 °C; to `Cc1ccccc1C1SC2(CCN(CCCC(=O)c3ccc(F)cc3)CC2)c2ccccc21` (stereo not given), 143 to 145 °C.
The molecule `C=C(C)COc1cc(C)c(NC(=O)CC(C)(C)C)c(C)c1Cc1ccc(C(C)C)cc1` gave a melting point of 129 to 130 °C.
In the case of `O=C(Cc1c(Cl)c(F)nc(F)c1Cl)OCc1ccccc1` it was 98 to 101 °C; in that of `COC(=O)C1CCC2C3CCC4CC(O)C(Br)CC4(C)C3C(=O)CC12C` (stereo not given), 205 to 208 °C.
To `COC(=O)c1ccccc1NS(=O)(=O)c1nc2nc(C)cc(C)n2n1` belongs 170 °C.
With `C=C1C(O)C(CO)OC1n1cc(CC)c(=O)[nH]c1=O` (stereo not given), the melting point was 137 to 139 °C.
In turn, `CC(C)n1nc(-c2sc(NC(=O)N3CCCCC3)nc2-c2ccccc2)ccc1=O` returned a melting point of 138 to 140 °C.
To `Cc1oc(-c2ccccc2)nc1CCOc1ccc(C[C@H](Nc2ccccc2C(=O)c2ccccc2)C(=O)O)cc1` belongs 85 to 90 °C.
In turn, `CC1(C)Oc2ccc(Br)cc2C(n2ccccc2=O)=C1CBr` registered a melting point of 175 °C.
To `COc1ccc(-c2ncn(C)c2-c2ccc(OC)cc2)cc1` belongs 122 °C; to `COCCOc1cc2ncnc(C3C(=O)N(C=O)c4ccccc43)c2cc1OC` (stereo not given), 228 to 230 °C; to `C[C@H](Cc1cc2c(c(C(N)=O)c1)N(CCCCOCc1ccccc1)CC2)NCCOc1ccccc1OCC(F)(F)F`, 101 to 102 °C.
As for `COc1ccc(-n2nc(C)c3c(C(=O)Nc4c(C)ccnc4C)cc(C)nc32)cc1`, the melting point fell in the range of 224 to 227 °C.
In the case of `c1ccc(COc2ccc(NC3Cc4ccccc4C3)cc2)cc1` it was 72 to 75 °C; in that of `CNCc1cn(S(=O)(=O)c2ccccc2)c(-c2cccnc2F)c1F`, 128 °C.
Molecule `O=C(OCc1c(F)c(F)nc(F)c1Cl)c1ccccc1` returned a melting point of 60 °C.
To `CC1CN(c2ccc(F)cc2)N=C1NC=O` (stereo not given) belongs 166 to 168 °C.
In the case of `O=C(c1cc(C(F)(F)F)cc(C(F)(F)F)c1)N1CCN(C(=O)CNC2CCN(Cc3ccccc3)CC2)C(c2ccccc2)C1` (racemic) it was 65 to 67 °C; in that of `COc1cccc(C2(C(N)=O)CCCCC2)c1`, 120 to 122 °C.
In the case of `CC(CN(O)C(N)=O)OCc1cc2ccccc2s1` (stereo not given) it was 132 to 133 °C; in that of `CCCc1c(OCc2ccccc2)ccc2c1OC(C(=O)OC)(C1CC1C(=O)OC)CC2` (stereo not given), 82 to 84 °C; in that of `Cc1ccc(S(=O)(=O)c2ccc(O)cc2)c(Br)n1`, 99 to 102 °C.
Consider `CCCNNC(=O)c1cnc(N(CC)Cc2cc(Br)ccc2OCc2ccccc2)s1`, for which the melting point came to 163 °C.
To `CCOC(=O)C1=C(C)Nc2cncn2C1c1cccc([N+](=O)[O-])c1` (stereo not given) belongs 196 to 197 °C; to `CN1CCNCC(NC(=O)c2n[nH]c3ccccc23)C1` (stereo not given), 163 to 166 °C.
Regarding `O=C(O)CN1C(=O)C2C3C=CC(CC3)C2C1=O` (stereo not given), the melting point is 142 °C.
In the case of `CCCCOc1ccc(C(=O)c2cccc(C(=O)O)c2)c(OC)c1` it was 144 to 145 °C.
To `CC1(C)SCN(CCCCN2CCN(c3ccc4ccccc4n3)CC2)C1=O` belongs 107 to 111 °C; to `CC(C)(C)OC(=O)N1CCC(c2ccc(COc3ccc(-n4cncn4)cc3)nc2)CC1`, 147 to 150 °C.
In the case of `CC(=O)OC1(Cc2ccncc2)C(=O)N(N2CCOCC2)c2ccccc21` (stereo not given) it was 178 to 180 °C; in that of `CCOC(=O)c1nc(-c2ccc(F)cc2)[nH]c1N=NN(C)C`, 177 °C; in that of `COC(=O)c1cccc2oc(SCCN3CCN(CC(=O)Nc4c(C(C)C)cccc4C(C)C)CC3)nc12`, 173 to 175 °C.
`O=C(NCc1cccs1)c1cc2ccnc(N(Cc3ccccc3)Cc3ccccc3)c2[nH]1` showed a melting point of 152 to 154 °C.
In the case of `COC(=O)C=C1NCC(CO)OC1=O` (stereo not given) it was 112 to 114 °C; in that of `CCCCC1C2CCCC(C2=O)C2(O)CCCCC12` (stereo not given), 140 to 141 °C; in that of `N#Cc1cnn2c(C(F)(F)F)cc(-c3ccncc3)nc12`, 233 °C.
To `CC(C)(C)NS(=O)(=O)c1cccc(NC(=O)c2cnn3c(C(F)F)cc(-c4ccc(C(F)(F)F)cc4)nc23)c1` belongs 228 °C; to `COC(=S)N(C)C[C@@H]1CN(c2cc(F)c(N3CC(=O)N(C)C3)c(F)c2)C(=O)O1`, 130 °C.
In the case of `COc1cc(C=CC(=O)c2ccccc2O)cc(OC)c1` it was 110 to 111 °C; in that of `O=C(O)COc1ccc(CCCS(=O)(=O)c2ccc(Cl)cc2)cc1`, 159 to 160 °C; in that of `CC(C)(C)OC(=O)N[C@H]1CC[C@@H](NC(=O)OC(C)(C)C)CC1`, 144 °C.
As for `NC(=O)CC1(c2ccccc2)Oc2ccccc2O1`, the melting point is 114 to 115 °C.
In the case of `CCOC(=O)c1cc2cc(OCCN(C)C)ccc2[nH]1` it was 110 °C; in that of `CN1CCN(Cc2ccccc2Cl)C(C2=NCCO2)C1` (stereo not given), 96.8 °C.
In the case of `COc1cc(C)nc(NC(=O)NS(=O)(=O)c2ccccc2OCCOS(C)(=O)=O)n1` it was 176 to 179 °C; in that of `C=CC(=O)N1Cc2cc(OC)ccc2SC(Cl)C1` (stereo not given), 97.5 to 99.5 °C.
`Cn1ncnc1COc1nn2c(-c3ccccc3F)nncc2c1-c1cccc(F)c1` registered a melting point of 176 °C.
In the case of `CCCN(CCC)CCc1ccc(OC)c2[nH]nc(O)c12`, the melting point was in the range of 198 to 201 °C.
In the case of `CON=CC1CCCN(OC(=O)c2ccccc2)C1` (stereo not given) it was 38 to 40 °C; in that of `C=CCOc1ccc(OCC)c2c1S(=O)(=O)N(Cc1ccccc1)C2=O`, 148 to 149 °C; in that of `Cn1c(=O)c(-c2c(Cl)cccc2Cl)cc2cnc(N)nc21`, 235 to 237 °C.
In the case of `CCC(=S)C1Cc2c(OC)ccc(OC)c2CO1` (stereo not given) it was 99.2 °C; in that of `N#CCc1ccccc1NC(=O)C(F)(F)C(F)(F)C(F)(F)F`, 76 to 79 °C.
In the case of `Fc1cc(F)c(-c2c(Cl)nc(Cl)n2-c2ccc(Cl)cc2)c(F)c1` it was 112 to 119 °C; in that of `Cc1cc(CCCCCCCOc2ccc(C3=NCCN3)cc2)on1`, 118 to 119 °C; in that of `CC(c1c[nH]cn1)c1cccc(C#N)c1O` (stereo not given), 172 °C.
For the molecule `COc1cc2c(CCNC(C)=O)c[nH]c2cc1F`, the melting point lay in the range of 158 to 159 °C.
In the case of `OC[C@H]1O[C@@H](n2cnc3c(NC4CCOC4)ncnc32)[C@@H](O)[C@H]1O` (stereo not given in full) it was 128 to 130 °C; in that of `Nc1ccc(Cl)cc1C(=O)C(F)(F)F`, 93 to 94 °C; in that of `COCN1C(=O)CN2CCOC2(c2ccccc2Cl)c2cc(Cl)ccc21` (stereo not given), 144 to 147 °C.
To `CCN(CC)CCN(CCCCCSc1nc(-c2ccccc2)c(-c2ccccc2)[nH]1)C(=O)NC(C)C` belongs 58 to 59 °C; to `Oc1cccc(O)c1CCC(F)(F)F`, 82 to 84 °C.
In the case of `Cc1oc(-c2ccccc2)nc1COc1ccc2cc(CC3OC(=O)NC3=O)oc2c1` (stereo not given) it was 172 to 173 °C; in that of `Oc1ccc(Br)cc1CNc1cc(Cl)cc(Cl)c1`, 125 to 126 °C.
In turn, `CCCCN(CCCC)C(=O)Nc1cccc(Br)c1` displayed a melting point of 80 to 81 °C.
Molecule `COc1ccc(S(=O)c2ccccc2)cc1N` (stereo not given) displayed a melting point of 113 to 115 °C.
As to `CNc1ccc(NC(=O)c2cc3cc(F)ccc3n2Cc2cccc(F)c2)cn1`, the melting point was in the range of 225 to 227 °C.
`O=S1(=O)NC(C2CCCCC2)Nc2ccc(S(=O)(=O)N3CCCC3)cc21` (stereo not given) had a melting point of 244 to 246 °C.
In the case of `CCOC(C)O[C@H]1C(=O)N[C@H]1C1CCCCC1` (stereo not given in full), the melting point was 87 to 89 °C.
In the case of `COC(=O)[C@@H]1C[C@H](OS(C)(=O)=O)C(=O)[C@H]2[C@@]1(C)CC[C@H]1C(=O)O[C@H](c3ccoc3)C[C@]21C` it was 147 to 150 °C.
In the case of `CC(C)(C)OC(=O)N1CCC[C@@H](Nc2ncc3c(n2)-c2ccccc2[C@@H](c2ccc(Cl)c(Cl)c2)C3)C1` it was 85 to 87 °C.
To `CCOC(=O)c1nn(CC)c2nccc(O)c12` belongs 85 to 87 °C.
The molecule `Oc1ccc2sc(C=C3C4CC5CC(C4)CC3C5)nc2c1` showed a melting point of 156 to 158 °C.
In the case of `N#Cc1cnc2cc(F)c(OCCN3CCOCC3)cc2c1Cl`, the melting point fell in the range of 163 to 164 °C.
Molecule `COC1=C(OC)C(=O)C(CCCCCCCCCC(=O)N[C@H](CCC(=O)O)C(N)=O)=C(C)C1=O` had a melting point of 136 to 137 °C.
To `CN1CCC(C(=O)N(C)c2ccc(C(=O)N3CCCCc4ccccc43)cc2)CC1` belongs 194 to 197 °C; to `CCOC(=O)CC1(S(N)(=O)=O)c2ccccc2-c2ccc(Cl)cc21` (stereo not given), 246 to 248 °C.
Turning to `CN(O)C(=O)C(=Cc1ccc2ccccc2c1)c1ccc(F)cc1`, the melting point is 132 to 134 °C.
In the case of `COc1cc(Nc2cc3c(cc2Nc2ccccc2)C(=O)NC3=O)cc(OC)c1OC` it was 203 to 205 °C; in that of `Nc1sc2cccnc2c1N`, 204 to 209 °C; in that of `OC[C@@H]1CCCN1Cc1cc2cc3c(cc2c2cc(OCc4ccccc4)ccc12)OCO3`, 122 to 124 °C.
In the case of `COc1ccc(-c2nc(CCOc3ccc(CN(O)C(N)=O)cc3)c(C)o2)cc1` it was 100 to 101 °C; in that of `NCCCc1c[nH]c(-c2ccc(F)cc2)c1-c1ccncc1`, 198 to 199 °C; in that of `[N-]=[N+]=N[C@H]1CC[C@@H](NC(=O)OCc2ccccc2)CC1`, 42 to 46 °C.
